The subject of the experiment is p57. The experiment in a line: Western blot of p57 in mammary epithelial cells. In kind it is cell-based, human. The settings on record: EGCG 15 to 200 μM, 24 h. On the procedure: Western blot analysis. The keratinocytes and the mammary epithelial cells were placed in KGM-2 and MEGM, respectively, overnight prior to treatment. Cells were lysed, after 24-hour treatment, in RIPA buffer (1% NP-40, 1% sodium deoxycholate, 0.1% SDS, 0.15 M NaCl, 0.01 M sodium phosphate, pH 7.2, and 1% Trasylol) containing proteinase inhibitors (1 mM PMSF, 1 μg/ml each of aprotinin, leupeptin, and pepstatin). The concentration of protein in each sample was determined using the BioRad DC Protein Assay and spectrophotometry. 50 μg of protein from each sample and a BioRad molecular weight standard marker were run on a 10% SDS-PAGE, followed by transfer to nitrocellulose membranes. Nonspecific binding to the membranes was blocked with 10% nonfat milk. Primary polyclonal (rabbit) antibodies and a horseradish peroxidase-conjugated goat anti-rabbit secondary antibody were used in conjunction with the ECL Chemiluminescence Kit (Amersham Pharmacia Biotech, New Jersey) and membranes were exposed to radiographic films for detection. Western blots were digitized for comparison of the intensity for each band using the ImageTool image analysis software program (University of Texas Health Science Center, San Antonio, Tex.). The integrated density of each band was measured using identical 1480 pixel areas of each Apfa-1 or Actin band at a scale of densities from 0 to 255. […]

Consider `O=C(O[C@@H]1Cc2c(O)cc(O)cc2O[C@@H]1c1cc(O)c(O)c(O)c1)c1cc(O)c(O)c(O)c1` [EGCG, (−)-epigallocatechin-3-gallate], for which the p57 levels entry was “no significant changes”.
